The record followed here is patent publication US7592345B2, “Piperazine and [1,4]diazepan derivatives as NK antagonists” (Hoffmann-La Roche Inc., priority 2007, dated 2009).

SMILES strings stand for the structures. pKi: −log10 of the molar value.

This experiment concerns the target T1, recombinant human NK3 receptor (Homo sapiens, UniProt P29371).
T1 construct: expressed in transfected cells; host or cells: HEK293 cells (transient expression), membranes
T1 sequence (P29371 1-465): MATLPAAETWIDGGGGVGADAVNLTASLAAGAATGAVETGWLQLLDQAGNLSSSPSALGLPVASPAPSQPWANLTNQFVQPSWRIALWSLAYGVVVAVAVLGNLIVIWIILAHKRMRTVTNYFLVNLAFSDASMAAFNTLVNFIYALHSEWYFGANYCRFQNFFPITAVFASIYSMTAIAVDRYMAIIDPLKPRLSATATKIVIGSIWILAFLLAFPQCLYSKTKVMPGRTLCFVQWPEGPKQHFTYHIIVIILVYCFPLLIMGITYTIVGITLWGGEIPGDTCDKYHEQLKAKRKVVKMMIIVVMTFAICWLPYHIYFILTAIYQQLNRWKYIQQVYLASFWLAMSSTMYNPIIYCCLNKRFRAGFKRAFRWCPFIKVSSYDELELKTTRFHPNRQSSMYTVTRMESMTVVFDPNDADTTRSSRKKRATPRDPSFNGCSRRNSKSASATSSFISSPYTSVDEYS
Put plainly: [3H]SR142801 competition binding assay. Conditions: [3H]SR142801, membranes from HEK293 cells transiently expressing recombinant human NK3 receptor; read-out: hNK3 Ki. The procedure:
[^3H]SR142801 Competition Binding Assay
hNK3 receptor binding experiment were performed using [^3H]SR142801 (Catalog No. TRK1035, specific activity: 74.0 Ci/mmol, Amersham, GE Healthcare UK limited, Buckinghamshire, UK) and membrane isolated from HEK293 cells transiently expressing recombinant human NK3 receptor. After thawing, the membrane homogenates were centrifuged at 48,000×g for 10 min at 4° C., the pellets were resuspended in the 50 mM Tris-HCl, 4 mM MnCl2, 1 μM phosphoramidon, 0.1% BSA binding buffer at pH 7.4 to a final assay concentration of 5 μg protein/well. For inhibition experiments, membranes were incubated with [^3H]SR142801 at a concentration equal to KD value of radioligand and 10 concentrations of the inhibitory compound (0.0003-10 μM) (in a total reaction volume of 500 μl) for 75 min at room temperature (RT). At the end of the incubation, membranes were filtered onto unitfilter (96-well white microplate with bonded GF/C filter preincubated 1 h in 0.3% PEI+0.3% BSA, Packard BioScience, Meriden, Conn.) with a Filtermate 196 harvester (Packard BioScience) and washed 4 times with ice-cold 50 mM Tris-HCl, pH 7.4 buffer. Nonspecific binding was measured in the presence of 10 μM SB222200 for both radioligands. The radioactivity on the filter was counted (5 min) on a Packard Top-count microplate scintillation counter with quenching correction after addition of 45 μl of microscint 40 (Canberra Packard S. A., Zürich, Switzerland) and shaking for 1 h. Inhibition curves were fitted according to the Hill equation: y=100/(1+(x/IC50)^nH), where nH=slope factor using Excel-fit 4 software (Microsoft). IC50 values were derived from the inhibition curve and the affinity constant (Ki) values were calculated using the Cheng-Prussoff equation Ki=IC50/(1+[L]/KD) where [L] is the concentration of radioligand and KD is its dissociation constant at the receptor, derived from the saturation isotherm. All experiments were performed in duplicate and the mean±standard error (SEM) of the individual Ki values was calculated.
On to `COc1ccc(CN(C)C(=O)C(C)(CCN2CCCN(S(C)(=O)=O)CC2)c2ccc(Cl)c(Cl)c2)cc1F` (centres unmarked) [Example 104, 2-(3,4-Dichloro-phenyl)-N-(3-fluoro-4-methoxy-benzyl)-4-(4-methanesulfonyl-[1,4]diazepan-1-yl)-2,N-dimethyl-butyramide], for which the pKi (commonly −log10 of the Ki, conventionally taken in molar units) is 7.22.
With `CC(CCN1CCN(S(C)(=O)=O)CC1)(C(=O)NCc1ccc(C(F)(F)F)c(F)c1)c1ccc(Cl)c(Cl)c1` (centres unmarked) [Example 20, 2-(3,4-Dichloro-phenyl)-N-(3-fluoro-4-trifluoromethyl-benzyl)-4-(4-methanesulfonyl-piperazin-1-yl)-2-methyl-butyramide], the pKi was 7.17.
As for `CC(CCN1CCN(S(C)(=O)=O)CC1)(C(=O)N[C@@H](CO)c1ccccc1)c1ccc(Cl)c(Cl)c1` (single isomer, unassigned) [Example 129, (S or R)-2-(3,4-Dichloro-phenyl)-N-((R)-2-hydroxy-1-phenyl-ethyl)-4-(4-methanesulfonyl-piperazin-1-yl)-2-methyl-butyramide], the figure is 6.48; as for `COc1ccc(CN(C)C(=O)C(CCN2CCN(S(C)(=O)=O)CC2)c2ccc(Cl)c(Cl)c2)cc1F` (centres unmarked) [Example 6, 2-(3,4-Dichloro-phenyl)-N-(3-fluoro-4-methoxy-benzyl)-4-(4-methanesulfonyl-piperazin-1-yl)-N-methyl-butyramide], 6.16; as for `C[C@@H]1CN(CCC(C)(C(=O)N(C)Cc2ccccc2Cl)c2ccc(Cl)c(Cl)c2)CCN1S(C)(=O)=O` (stereo partly drawn) [Example 49, N-(2-Chloro-benzyl)-2-(3,4-dichloro-phenyl)-4-((R)-4-methanesulfonyl-3-methyl-piperazin-1-yl)-2,N-dimethyl-butyramide], 7.06.
As for `CC(CCN1CCN(S(C)(=O)=O)CC1)(C(=O)NCc1ccc(Cl)cc1)c1ccc(Cl)c(Cl)c1` (centres unmarked) [Example 29, N-(4-Chloro-benzyl)-2-(3,4-dichloro-phenyl)-4-(4-methanesulfonyl-piperazin-1-yl)-2-methyl-butyramide], the pKi is 7.01.
As for `COc1ccc(C(NC(=O)C(C)(CCN2CCCN(S(C)(=O)=O)CC2)c2ccc(Cl)c(Cl)c2)C2CC2)cc1` (centres unmarked) [Example 105, N-[Cyclopropyl-(4-methoxy-phenyl)-methyl]-2-(3,4-dichloro-phenyl)-4-(4-methanesulfonyl-[1,4]diazepan-1-yl)-2-methyl-butyramide], the figure is 6.87; as for `C[C@@H]1CN(CCC(C)(C(=O)N(C)Cc2cccc(C(F)(F)F)c2)c2ccc(Cl)c(Cl)c2)CCN1S(C)(=O)=O` (stereo partly drawn) [Example 58, 2-(3,4-Dichloro-phenyl)-4-((R)-4-methanesulfonyl-3-methyl-piperazin-1-yl)-2,N-dimethyl-N-(3-trifluoromethyl-benzyl)-butyramide], 7.25.
For `C[C@H]1CN(CCC(C)(C(=O)N(C)Cc2ccc(Cl)cc2)c2ccc(Cl)c(Cl)c2)CCN1S(C)(=O)=O` (stereo partly drawn) [Example 86, N-(4-Chloro-benzyl)-2-(3,4-dichloro-phenyl)-4-((S)-4-methanesulfonyl-3-methyl-piperazin-1-yl)-2,N-dimethyl-butyramide], the pKi is 7.18.
For the molecule `C[C@@H]1CN(CCC(C)(C(=O)NCc2ccc(OC(F)(F)F)cc2)c2ccc(Cl)c(Cl)c2)CCN1S(C)(=O)=O` (stereo partly drawn) [Example 53, 2-(3,4-Dichloro-phenyl)-4-((R)-4-methanesulfonyl-3-methyl-piperazin-1-yl)-2-methyl-N-(4-trifluoromethoxy-benzyl)-butyramide], the pKi is 7.64.
As for `CC(NC(=O)C(C)(CCN1CCN(S(C)(=O)=O)[C@H](C)C1)c1ccc(Cl)c(Cl)c1)c1ccc(Cl)c(Cl)c1` (stereo partly drawn) [Example 50, 2-(3,4-Dichloro-phenyl)-N-[1-(3,4-dichloro-phenyl)-ethyl]-4-((R)-4-methanesulfonyl-3-methyl-piperazin-1-yl)-2-methyl-butyramide], the figure is 7.59; as for `CC(CCN1CCN(S(C)(=O)=O)CC1)(C(=O)N[C@@H](CO)c1ccc(Cl)cc1)c1ccc(Cl)c(Cl)c1` (stereo partly drawn) [Example 130, N-[(R)-1-(4-Chloro-phenyl)-2-hydroxy-ethyl]-2-(3,4-dichloro-phenyl)-4-(4-methanesulfonyl-piperazin-1-yl)-2-methyl-butyramide], 7.40; as for `COc1ccc(C(NC(=O)C(C)(CCN2CCN(S(C)(=O)=O)CC2)c2ccc(Cl)c(Cl)c2)C2CC2)cc1` (centres unmarked) [Example 15, N-[Cyclopropyl-(4-methoxy-phenyl)-methyl]-2-(3,4-dichloro-phenyl)-4-(4-methanesulfonyl-piperazin-1-yl)-2-methyl-butyramide], 6.63.
With `CC(CCN1CCCN(S(C)(=O)=O)CC1)(C(=O)NCc1ccc(C(F)(F)F)nc1)c1ccc(Cl)c(Cl)c1` (centres unmarked) [Example 126, 2-(3,4-Dichloro-phenyl)-4-(4-methanesulfonyl-[1,4]diazepan-1-yl)-2-methyl-N-(6-trifluoromethyl-pyridin-3-ylmethyl)-butyramide], the pKi was 6.02.
`CN(Cc1ccc(C(F)(F)F)cc1)C(=O)C(CCN1CCN(S(C)(=O)=O)CC1)c1ccc(Cl)c(Cl)c1` (centres unmarked) [Example 5, 2-(3,4-Dichloro-phenyl)-4-(4-methanesulfonyl-piperazin-1-yl)-N-methyl-N-(4-trifluoromethyl-benzyl)-butyramide]: the pKi is 6.87.
On to `C[C@H]1CN(CCC(C)(C(=O)N(C)Cc2ccc(F)c(C(F)(F)F)c2)c2ccc(Cl)c(Cl)c2)CCN1S(C)(=O)=O` (stereo partly drawn) [Example 64, 2-(3,4-Dichloro-phenyl)-N-(4-fluoro-3-trifluoromethyl-benzyl)-4-((S)-4-methanesulfonyl-3-methyl-piperazin-1-yl)-2,N-dimethyl-butyramide], for which the pKi is 7.77.
Take `C[C@H]1CN(CCC(C)(C(=O)NCc2cccc(OC(F)(F)F)c2)c2ccc(Cl)c(Cl)c2)CCN1S(C)(=O)=O` (stereo partly drawn) [Example 81, 2-(3,4-Dichloro-phenyl)-4-((S)-4-methanesulfonyl-3-methyl-piperazin-1-yl)-2-methyl-N-(3-trifluoromethoxy-benzyl)-butyramide]: the negative-log Ki (pKi) was 6.90.
As for `CN(Cc1cccc(F)c1)C(=O)C(CCN1CCN(S(C)(=O)=O)CC1)c1ccc(Cl)c(Cl)c1` (centres unmarked) [Example 7, 2-(3,4-Dichloro-phenyl)-N-(3-fluoro-benzyl)-4-(4-methanesulfonyl-piperazin-1-yl)-N-methyl-butyramide], the figure is 6.41; as for `C[C@@H]1CN(CCC(C)(C(=O)NCc2cccc(OC(F)(F)F)c2)c2ccc(Cl)c(Cl)c2)CCN1S(C)(=O)=O` (stereo partly drawn) [Example 51, 2-(3,4-Dichloro-phenyl)-4-((R)-4-methanesulfonyl-3-methyl-piperazin-1-yl)-2-methyl-N-(3-trifluoromethoxy-benzyl)-butyramide], 7.84.
On to `COc1cccc(CN(C)C(=O)C(C)(CCN2CCN(S(C)(=O)=O)[C@@H](C)C2)c2ccc(Cl)c(Cl)c2)c1` (stereo partly drawn) [Example 78, 2-(3,4-Dichloro-phenyl)-4-((S)-4-methanesulfonyl-3-methyl-piperazin-1-yl)-N-(3-methoxy-benzyl)-2,N-dimethyl-butyramide], for which the negative-log Ki (pKi) was 6.21.
As to `C[C@@H]1CN(CCC(C)(C(=O)N(C)Cc2ccc(Cl)c(C(F)(F)F)c2)c2ccc(Cl)c(Cl)c2)CCN1S(C)(=O)=O` (stereo partly drawn) [Example 39, N-(4-Chloro-3-trifluoromethyl-benzyl)-2-(3,4-dichloro-phenyl)-4-((R)-4-methanesulfonyl-3-methyl-piperazin-1-yl)-2,N-dimethyl-butyramide], the pKi was 7.90.
For the molecule `C[C@H]1CN(CCC(C)(C(=O)NCc2cc(C(F)(F)F)cc(C(F)(F)F)c2)c2ccc(Cl)c(Cl)c2)CCN1S(C)(=O)=O` (stereo partly drawn) [Example 65, N-(3,5-Bis-trifluoromethyl-benzyl)-2-(3,4-dichloro-phenyl)-4-((S)-4-methanesulfonyl-3-methyl-piperazin-1-yl)-2-methyl-butyramide], the pKi is 7.07.
Consider `CC(NC(=O)C(C)(CCN1CCN(S(C)(=O)=O)CC1)c1ccc(Cl)c(Cl)c1)c1ccc(Cl)cc1` (centres unmarked) [Example 14, N-[1-(4-Chloro-phenyl)-ethyl]-2-(3,4-dichloro-phenyl)-4-(4-methanesulfonyl-piperazin-1-yl)-2-methyl-butyramide], for which the pKi is 6.77.
